In brackets after ≈: the same amount, converted by molar mass. *1 amine or outer side, *2 acyl side, *3 side chain or, on linkers, in order; H or OH if unused. Where a SMILES comes first, the peptide text is derived from it. Bridges are numbered along the chain shown (N, C = ends). Roman numbers before positions name the chains, in order. [ ]: non-standard residue; d: D form. Actinocin(1to9) = Cc1c2oc3c(C)ccc(C(=O)[*:2])c3nc-2c(C(=O)[*:1])c(N)c1=O; Pro(4-oxo) = O=C1CN[C@H](C(=O)O)C1; NMeV = CN[C@H](C(=O)O)C(C)C; Sar = CNCC(=O)O
Tests used:
[1] = tested on: Escherichia coli; test: Antibacterial activity against Escherichia coli; type: functional
[2] = tested on: Staphylococcus aureus; test: Antibacterial activity against methicillin-resistant Staphylococcus aureus; type: functional
[3] = tested on: Staphylococcus aureus; test: Antibacterial activity against Staphylococcus aureus ATCC 29213; type: functional
[4] = tested on: Bacillus subtilis; test: Antibacterial activity against Bacillus subtilis CMCC63501; type: functional
[5] = tested on: Enterococcus faecalis; test: Antibacterial activity against Enterococcus faecalis ATCC 19433 by broth microdilution assay; type: functional
[6] = Inhibition of Escherichia coli RNA polymerase
[7] = Inhibition of Staphylococcus aureus RNA polymerase
[8] = tested on: Escherichia coli; test: Antibacterial activity against Escherichia coli D21f2tolC by broth microdilution assay; type: functional
[9] = tested on: Haemophilus influenzae; test: Antibacterial activity against Haemophilus influenzae ATCC 49247 by broth microdilution assay; type: functional
[10] = tested on: Bacillus subtilis; test: Antibacterial activity against Bacillus subtilis DSM 347 incubated for 5 hrs by resazurin dye reduction based assay; type: functional, organism-based; details: DSM 347, 5 h
[11] = tested on: Staphylococcus epidermidis; test: Antibacterial activity against Staphylococcus epidermidis DSM 20044 incubated for 5 hrs by resazurin dye reduction based assay; type: functional, organism-based; details: DSM 20044, 5 h
[12] = tested on: Mycobacterium tuberculosis; test: Antibacterial activity against Mycobacterium tuberculosis H37Rv ATCC 27294 incubated for 10 days by GFP based fluorescence assay; type: functional; details: H37Rv ATCC 27294, 240 h
[13] = tested on: Enterococcus; test: Antibacterial activity against Enterococcus VRE-WMC by CLSI method; type: functional
[14] = tested on: Enterococcus; test: Antibacterial activity against Enterococcus VRE-CUS by CLSI method; type: functional
[15] = tested on: Pseudomonas aeruginosa; test: Antibacterial activity against Pseudomonas aeruginosa ATCC 27853 by CLSI method; type: functional
[16] = tested on: Moraxella catarrhalis; test: Antibacterial activity against Moraxella catarrhalis ATCC 25238 by CLSI method; type: functional
[17] = tested on: Clostridioides difficile; test: Antibacterial activity against Clostridioides difficile BI/NAP1/O27 by agar dilution method; type: functional
[18] = tested on: Staphylococcus aureus; test: Antibacterial activity against methicillin-resistant Staphylococcus aureus by CLSI method; type: functional
[19] = tested on: Escherichia coli; test: Antibacterial activity against Escherichia coli by CLSI method; type: functional
[20] = tested on: Enterococcus faecium; test: Antibacterial activity against Enterococcus faecium CCUG 37832 incubated for 18 hrs by WST1 assay; type: functional; details: CCUG 37832, 18 h
[21] = tested on: Enterococcus faecium; test: Antibacterial activity against Enterococcus faecium CTC 492 incubated for 18 hrs by WST1 assay; type: functional; details: CTC 492, 18 h
[22] = tested on: Pseudomonas aeruginosa; test: Antibacterial activity against Pseudomonas aeruginosa incubated for 24 hrs by standard broth dilution assay; type: functional
[23] = tested on: Staphylococcus aureus; test: Antibacterial activity against Staphylococcus aureus incubated for 24 hrs by standard broth dilution assay; type: functional
[24] = tested on: Escherichia coli; test: Antibacterial activity against Escherichia coli incubated for 24 hrs by standard broth dilution assay; type: functional
[25] = tested on: Bacillus subtilis; test: Antibacterial activity against Bacillus subtilis incubated for 24 hrs by standard broth dilution assay; type: functional
[26] = tested on: Enterococcus faecalis; test: Antibacterial activity against Enterococcus faecalis ATCC 29212 by microplate assay; type: functional
[27] = tested on: Staphylococcus aureus; test: Antibacterial activity against methicillin-sensitive Staphylococcus aureus; type: functional
[28] = tested on: Moraxella catarrhalis; test: Antibacterial activity against Moraxella catarrhalis; type: functional
[29] = tested on: Staphylococcus aureus; test: Antibacterial activity against methicillin-resistant Staphylococcus aureus infected in CD1 mouse assessed as mouse survival rate at 10 mg/kg; type: functional
[30] = tested on: Bacillus anthracis; test: Antibacterial activity against Bacillus anthracis UM23C1-1 by microplate assay; type: functional
[31] = tested on: Streptococcus pneumoniae; test: Antibacterial activity against Streptococcus pneumoniae ATCC 51916 by microplate assay; type: functional
[32] = tested on: Staphylococcus aureus; test: Antibacterial activity against Staphylococcus aureus ATCC 13709 by microplate assay; type: functional
[33] = tested on: Staphylococcus aureus; test: Antibacterial activity against Staphylococcus aureus ATCC 25925 by broth microdilution method; type: functional
[34] = tested on: Pseudomonas aeruginosa; test: Antibacterial activity against Pseudomonas aeruginosa ATCC 25916 by broth microdilution method; type: functional
[35] = tested on: Staphylococcus aureus; test: Antibacterial activity against drug-resistant Staphylococcus aureus by broth microdilution method; type: functional
[36] = tested on: Bacillus subtilis; test: Antibacterial activity against Bacillus subtilis ATCC 63501 by broth microdilution method; type: functional
[37] = tested on: Escherichia coli; test: Antibacterial activity against Escherichia coli ATCC 25922 by broth microdilution method; type: functional
[38] = tested on: Escherichia coli; test: Antibacterial activity against drug-resistant Escherichia coli by broth microdilution method; type: functional
[39] = tested on: Staphylococcus aureus; test: Antibacterial activity against methicillin-resistant Staphylococcus aureus ATCC 43300; type: functional
[40] = tested on: Staphylococcus aureus; test: Antibacterial activity against Staphylococcus aureus […]; type: functional

**Q.** Which MIC [1] does the source give for `C/C(=C\C(=O)OCCCCCCCC(=O)Nc1c2sscc-2[nH]c1=O)C[C@@H]1OC[C@H](C[C@@H]2O[C@H]2[C@@H](C)[C@H](C)O)[C@@H](O)[C@H]1O` here?
**A.** 0.5 µg/mL (≈ 0.78 µM)

**Q.** What about the MIC [2] of the same molecule?
**A.** ≤ 0.03 µg/mL

**Q.** Which MIC [3] does the source give for `COC(=O)N[C@H]1[C@@H](C)O[C@@H](O[C@H]2C/C=C(\C)[C@@H]3C=C[C@@H]4[C@@H](O[C@H]5C[C@@H](O[C@H]6C[C@@H](O)[C@@H](O[C@@H]7C[C@@H](O)[C@@H](OC)[C@H](C)O7)[C@H](C)O6)[C@@H](O)[C@H](C)O5)[C@@H](C)C[C@H](C)[C@H]4[C@]3(C)C(=O)C3=C(O)[C@@]4(C[C@@H](C)C(C=O)=C[C@H]4/C=C/2C)OC3=O)C[C@]1(C)[N+](=O)[O-]` here?
**A.** 6.2 to 50 µg/mL (≈ 5.23 to 42.2 µM)

**Q.** What about the MIC [4] of the same molecule?
**A.** 1.6 to 3.1 µg/mL (≈ 1.35 to 2.62 µM)

**Q.** With `CC[C@H](C)[C@H]1NC(=O)[C@@H](NC(=O)[C@H](C)[C@H](O)C(C)C)[C@@H](C)OC(=O)[C@H]2NC(=O)[C@@H](C(C)C)NC(=O)[C@@H](Cc3ccccc3)N(C)C(=O)[C@@H](NC1=O)c1ccc(cc1)O[C@H](C)[C@@](O)(CO)/C=C\C(=O)NCC(=O)O2` as the molecule, how does the MIC [5] read?
**A.** 12 µg/mL (≈ 11.7 µM)

**Q.** And the IC50 [6]?
**A.** 0.2 to 2 µM

**Q.** What about the IC50 [7] of the same molecule?
**A.** 0.2 to 4 µM

**Q.** And the MIC [8]?
**A.** 0.2 µg/mL (≈ 0.196 µM)

**Q.** And the MIC [9]?
**A.** 12 µg/mL (≈ 11.7 µM)

**Q.** For `CCC(C)CCC[C@H](C(=O)OC)[C@@H](O)c1cccc2nc3c(C(=O)OC)cccc3nc12` (some centres not stated), which IC50 [10] is on record?
**A.** 3.6 µg/mL (≈ 8.21 µM)

**Q.** What about the IC50 [11] of the same molecule?
**A.** 3.6 µg/mL (≈ 8.21 µM)

**Q.** With `Cc1c2oc3c(C)ccc(C(=O)N[C@@H]4C(=O)N[C@H](C(C)C)C(=O)N5CCC[C@H]5C(=O)N(C)CC(=O)N(C)[C@@H](C(C)C)C(=O)O[C@@H]4C)c3nc-2c(C(=O)N[C@@H]2C(=O)N[C@H](C(C)C)C(=O)N3CC(O)C[C@H]3C(=O)N(C)CC(=O)N(C)[C@@H](C(C)C)C(=O)O[C@@H]2C)c(N)c1=O` (some centres not stated) as the molecule, how does the MIC [12] read?
**A.** 1 to 8 µg/mL (≈ 0.787 to 6.29 µM)

**Q.** For `CC1(C)S[C@@H]2[C@H](NC(=O)[C@H](N)c3ccccc3)C(=O)N2[C@H]1C(=O)O` [AMPICILLIN], which MIC [4] is on record?
**A.** 1.6 to 3.1 µg/mL (≈ 4.58 to 8.87 µM)

**Q.** With `C=C(NC(=O)c1csc(-c2nc3c(cc2O)-c2nc(cs2)C(=O)N[C@@H]([C@@H](C)O)C(=O)N/C(=C/C)c2nc(cs2)C(=O)N[C@H]2C[C@H](O)C(=O)OCc4cccc5[nH]c(c(C)c45)C(=O)SC[C@H](NC(=O)c4csc2n4)c2nc-3cs2)n1)C(N)=O` as the molecule, how does the MIC [13] read?
**A.** 0.12 µg/mL (≈ 0.0982 µM)

**Q.** What about the MIC [14] of the same molecule?
**A.** 0.12 µg/mL (≈ 0.0982 µM)

**Q.** What about the MIC [15] of the same molecule?
**A.** > 4 µg/mL

**Q.** And the MIC [16]?
**A.** 0.5 µg/mL (≈ 0.409 µM)

**Q.** And the MIC [17]?
**A.** 0.01 µg/mL (≈ 0.00818 µM)

**Q.** And the MIC [18]?
**A.** 0.03 to 0.25 µg/mL (≈ 0.0245 to 0.205 µM)

**Q.** What about the MIC [19] of the same molecule?
**A.** > 4 µg/mL

**Q.** With `[O-][n+]1c2cccc(O)c2[n+]([O-])c2cccc(O)c21` as the molecule, how does the MIC [20] read?
**A.** 0.7 µg/mL (≈ 2.87 µM)

**Q.** And the MIC [21]?
**A.** 0.35 µg/mL (≈ 1.43 µM)

**Q.** Which MIC [12] does the source give for `Cc1c2oc3c(C)ccc(C(=O)N[C@@H]4C(=O)N[C@H](C(C)C)C(=O)N5CCC[C@H]5C(=O)N(C)CC(=O)N(C)[C@@H](C(C)C)C(=O)O[C@@H]4C)c3nc-2c(C(=O)N[C@@H]2C(=O)N[C@H](C(C)C)C(=O)N3CC(=O)C[C@H]3C(=O)N(C)CC(=O)N(C)[C@@H](C(C)C)C(=O)O[C@@H]2C)c(N)c1=O` (I: T[dV][Pro(4-oxo)][Sar][NMeV] / II: T[dV]P[Sar][NMeV]; ester I:1-I:C, II:1-II:C; linker I:N-II:N via Actinocin(1to9)) here?
**A.** 1 to 8 µg/mL (≈ 0.788 to 6.3 µM)

**Q.** With `CCCCCCCCCCCC(=O)N(CCO)CCO` as the molecule, how does the MIC [22] read?
**A.** 0.02 to 0.13 µg/mL (≈ 0.0696 to 0.452 µM)

**Q.** And the MIC [23]?
**A.** 0.02 to 0.13 µg/mL (≈ 0.0696 to 0.452 µM)

**Q.** What about the MIC [24] of the same molecule?
**A.** 0.02 to 0.13 µg/mL (≈ 0.0696 to 0.452 µM)

**Q.** What about the MIC [25] of the same molecule?
**A.** 0.02 to 0.13 µg/mL (≈ 0.0696 to 0.452 µM)

**Q.** What does the source list for `CC1=CC[C@@H]2[C@H]3/C(O)=C/C(=O)[C@@H](C)C(=O)O[C@H](C)/C=C/C=C\[C@@H](C)[C@H]3C=C[C@H]2C1`?
**A.** MIC [26]: 0.06 to 0.25 µg/mL (≈ 0.151 to 0.63 µM); MIC [27]: ≤ 0.25 µg/mL; MIC [28]: 4 µg/mL (≈ 10.1 µM); survival at 10 mg/kg [29]: 90%; MIC [30]: 0.03 µg/mL (≈ 0.0757 µM); MIC [31]: 0.06 to 0.25 µg/mL (≈ 0.151 to 0.63 µM); MIC [32]: 0.06 to 0.25 µg/mL (≈ 0.151 to 0.63 µM)

**Q.** Which results are given for `C[C@@H]1C/C=C2\SC[C@@H](NC(=O)c3coc(n3)C[C@@H](O)C[C@H](O)/C=C/C=C/CNC2=O)C(=O)O1`?
**A.** MIC [33]: 8 to 16 µg/mL (≈ 16.8 to 33.5 µM); MIC [34]: 32 µg/mL (≈ 67 µM); MIC [35]: 8 to 16 µg/mL (≈ 16.8 to 33.5 µM); MIC [36]: 8 to 16 µg/mL (≈ 16.8 to 33.5 µM); MIC [37]: 32 µg/mL (≈ 67 µM); MIC [38]: 32 µg/mL (≈ 67 µM)

**Q.** With `CCCC1(O)CC(=O)c2c(Cc3cc(=O)cc(O)o3)cccc2O1` (configuration not stated) as the molecule, how does the MIC [39] read?
**A.** 2 µg/mL (≈ 6.05 µM)

**Q.** What about the MIC [40] of the same molecule?
**A.** 16 µg/mL (≈ 48.4 µM)

— ChEMBL document CHEMBL4270488, “Antibacterial Compounds from Marine Bacteria, 2010-2015” (J Nat Prod, 2017)
